This note sets out measurements from ChEMBL document CHEMBL1147168, “Quinuclidines as selective agonists for alpha-7 nicotinic acetylcholine receptors” (Bioorg Med Chem Lett, 2007).

The experiment concerns the target Neuronal acetylcholine receptor subunit alpha-7 (Homo sapiens, UniProt P36544). The experiment in a line: Agonist activity at nAChR alpha-7 expressed in Xenopus oocytes. In kind it is functional, cell-based, Oocyte.

Sequence of Neuronal acetylcholine receptor subunit alpha-7 (P36544 whole entry): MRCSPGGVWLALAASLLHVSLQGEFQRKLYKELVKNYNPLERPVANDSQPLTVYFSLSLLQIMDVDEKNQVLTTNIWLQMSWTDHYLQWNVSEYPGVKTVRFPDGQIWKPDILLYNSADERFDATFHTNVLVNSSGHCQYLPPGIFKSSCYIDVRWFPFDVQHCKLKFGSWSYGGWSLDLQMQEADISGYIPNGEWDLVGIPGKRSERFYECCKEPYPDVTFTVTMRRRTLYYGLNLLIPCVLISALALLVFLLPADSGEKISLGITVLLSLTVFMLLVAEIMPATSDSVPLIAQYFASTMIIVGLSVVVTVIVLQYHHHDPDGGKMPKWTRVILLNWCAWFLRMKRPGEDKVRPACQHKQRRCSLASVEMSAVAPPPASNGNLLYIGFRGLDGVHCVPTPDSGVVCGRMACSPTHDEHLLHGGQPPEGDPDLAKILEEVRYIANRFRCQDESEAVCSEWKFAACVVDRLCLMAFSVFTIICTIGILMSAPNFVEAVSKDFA

On to `C(=C1\CN2CCC1CC2)/c1ccccc1`, for which the midpoint of the response, the EC50, lay at 1500 nM. This lies in the single-digit micromolar range. Next, `COc1ccc(/C=C2/CN3CCC2CC3)cc1`: 1300 nM.

By EC50 is commonly meant the midpoint of the concentration-response curve. Higher therefore signals a need for much substance.
